In PubChem BioAssay (NCI):
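Results reflect a 48-hour exposure of cells in 96-well plates to compound at five concentrations. TGI is the concentration that stops growth completely.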

Key:
Assay in all cases: NCI tumour cell line growth inhibition, 48 h
[1] = tested on: A498 renal
[2] = tested on: ACHN renal
[3] = tested on: COLO 205 colon
[4] = tested on: HCT-116 colon
[5] = tested on: HL-60(TB) leukemia
[6] = tested on: K-562 leukemia
[7] = tested on: M14 melanoma
[8] = tested on: NCI-H460 lung
[9] = tested on: NCI-H522 lung
[10] = tested on: SF-268 CNS
[11] = tested on: SF-295 CNS
[12] = tested on: SF-539 CNS
[13] = tested on: SK-MEL-28 melanoma
[14] = tested on: SK-MEL-5 melanoma
[15] = tested on: SNB-75 CNS
[16] = tested on: SW-620 colon
[17] = tested on: UO-31 renal
[18] = tested on: MDA-N
[19] = tested on: OVCAR-5 ovarian
[20] = tested on: UACC-257 melanoma

COc1ccc(/C(Cl)=C(\C=O)c2ccc(F)cc2)cc1OC
TGI [1]: 54.8 µM
TGI [2]: 58.6 µM
TGI [3]: 36.8 µM
TGI [4]: 31 µM
TGI [5]: 37.5 µM
TGI [6]: 73.5 µM
TGI [7]: 47.9 µM
TGI [8]: 43 µM
TGI [9]: 46.5 µM
TGI [10]: 83.3 µM
TGI [11]: 63.2 µM
TGI [12]: 59 µM
TGI [13]: 68.4 µM
TGI [14]: 37.7 µM
TGI [15]: 13.7 µM
TGI [16]: > 100 µM
TGI [17]: 61.1 µM

N=C(N)c1ccc(N=Nc2c(O)ccc3c2[nH]c2ccccc23)cc1
TGI [1]: > 100 µM
TGI [2]: 86.4 µM
TGI [3]: > 100 µM
TGI [4]: 37.5 µM
TGI [5]: > 100 µM
TGI [6]: 4.02 µM
TGI [7]: > 100 µM
TGI [18]: 50.6 µM
TGI [9]: > 100 µM
TGI [19]: 83.1 µM
TGI [10]: > 100 µM
TGI [11]: > 84.4 µM
TGI [12]: > 100 µM
TGI [13]: > 70.9 µM
TGI [14]: > 100 µM
TGI [15]: > 100 µM
TGI [16]: 4.85 µM
TGI [20]: > 89.1 µM
TGI [17]: > 90.9 µM

COc1ccc2nc3ccccc3c(NCCCCCCN(CCCl)CCCl)c2c1
TGI [3]: 0.107 µM
TGI [4]: 1.39 µM
TGI [5]: 0.592 µM
TGI [6]: > 18.5 µM
TGI [7]: 0.514 µM
TGI [18]: 0.656 µM
TGI [8]: 0.853 µM
TGI [19]: 1.9 µM
TGI [10]: 1.18 µM
TGI [11]: 1.01 µM
TGI [13]: 76.1 µM
TGI [14]: 1.64 µM
TGI [15]: 0.0924 µM
TGI [16]: 0.472 µM
TGI [20]: > 22.9 µM
TGI [17]: 0.513 µM

COC(=O)C1=C(C(=O)OC)SC2(S1)C1=C(CCCC1)SC(C(=O)OC)=C2C(=O)OC
TGI [1]: 19.4 µM
TGI [2]: 18.4 µM
TGI [3]: 23.2 µM
TGI [4]: 2.92 µM
TGI [5]: > 100 µM
TGI [6]: 21.5 µM
TGI [7]: 32.5 µM
TGI [18]: 15.2 µM
TGI [8]: 15.7 µM
TGI [9]: 4.36 µM
TGI [19]: 25.4 µM
TGI [10]: 22.3 µM
TGI [11]: 27.8 µM
TGI [12]: 4.27 µM
TGI [13]: 22.5 µM
TGI [14]: 23.4 µM
TGI [16]: 17.1 µM
TGI [20]: 28.9 µM
TGI [17]: 10.9 µM
